Assay results published in US9856290B2, “Glycopeptide compositions and uses thereof” (SUSSEX RESEARCH LABORATORIES INC., priority 2013, dated 2018).
Where a SMILES comes first, the peptide text is derived from it.

Tests used:
[1] = tested on: Human Dermal Fibroblasts (KMST-6); experiment: Cell morphology (phase contrast images); assay type: cell-based; conditions: 5 μM
Method: KMST-6 cells (Japan Health Sciences Foundation, JCRB0433) were seeded at 7,000 cells/ml in 12-well tissue culture treated plates (Falcon, 353043) in complete media. The complete media consists of the following: MEM/EBSS (Hyclone, SH30024.01), 10% Heat-Inactivated FBS (Gibco, 10082-147), 1% L-Glutamine (Hyclone, SH30031.01), 1% Nucleosides (800 mg/L Adenosine, 850 mg/L Guanidine, 730 mg/L Cytidine, 730 mg/L Uridine and 240 mg/L Thymidine), 1% Penicillin/Streptomycin (HyClone, SV30010), 1% Sodium Pyruvate (HyClone, SH30239.01), 1% Non-Essential Amino Acids (Hyclone, SH30238.01) and 0.04% Gentamicin (Gibco, 15710-064). Cells were grown for 2 days prior to treatments. The media was aspirated and cells were washed with 1×PBS (Fisher, SH30256.01) and treated with 5 μM glycopeptides (GP001-1, GP002-3, GP002-7, GP003-9, GP004-3 and GP004-4), reference (Pal-KTTKS, CPC Scientific, 822197), and control (DMSO, Fisher, BP231-100) in serum-free media supplemented with 50 μg/mL Sodium Ascorbate (Sigma, A4034) and 80 μg/mL β-Aminopropionate Fumarate (Sigma, A3134). The treated cells were incubated at 37° C. and 5% CO2 for 48 and 72 hours. At each time point, images were taken with an Olympus Opti-Tech Scientific Microscope (Lumenera, Infinity 2 camera at 10× magnification) and changes in cell size and morphology were recorded. […]

[2] = tested on: Human Dermal Fibroblasts (KMST-6); experiment: Cell Viability MTT Assay; assay type: cell-based; conditions: 5 μM, KMST-6, 48 and 72 hours; toxicity defined as viability less than 50% of control
Method: KMST-6 cells (Japan Health Sciences Foundation, JCRB0433) were seeded at 7,000 cells/ml in complete media. The complete media consists of the following: MEM/EBSS (Hyclone, SH30024.01), 10% Heat-Inactivated FBS (Gibco, 10082-147), 1% L-Glutamine (Hyclone, SH30031.01), 1% Nucleosides (800 mg/L Adenosine, 850 mg/L Guanidine, 730 mg/L Cytidine, 730 mg/L Uridine and 240 mg/L Thymidine), 1% Penicillin/Streptomycin (HyClone, SV30010), 1% Sodium Pyruvate (HyClone, SH30239.01), 1% Non-Essential Amino Acids (Hyclone, SH30238.01) and 0.04% Gentamicin (Gibco, 15710-064). Cells were grown for 2 days prior to treatments. […] The absorbance was measured with a microplate reader (Molecular Devices, SpectraMax M2e) at 570 nm. […]
To determine effects on cell viability as a measure of toxicity, 5 μM of the 6 exemplary glycopeptides were applied to Human Dermal Fibroblasts (KMST-6) as previously described. […] The absorbance was measured with a microplate reader (Molecular Devices, SpectraMax M2e) at 570 nm. Three or more independent experiments were performed and statistical significance was determined using One-way ANOVA (p<0.05). […]

fibroblast = conditions: under certain conditions; cited from earlier work

## CCCCCCCCCCCCCCCC(=O)N[C@@H](CCCCN)C(=O)N[C@H](C(=O)N[C@H](C(=O)N[C@@H](CCCCN)C(=O)N[C@@H](CO)C(=O)O)[C@@H](C)O)[C@@H](C)O [Reference, Pal-KTTKS] (HELM PEPTIDE1{[CCCCCCCCCCCCCCCC(=O)[*:2]].K.T.T.K.S}$$$$V2.0)
[1]; KMST-6
  cell confluence compared to control and glycopeptide treated cells: demonstrated decrease in cell confluence
[1]; KMST-6, 48 and 72 hours
  toxicity as observed through phase-contrast morphology: visibly interfered with cell viability
[2]
  cell viability as a measure of toxicity (MTT assay): significant decrease in cell viability
fibroblast
  fibroblast cell viability: decrease fibroblast cell viability
